{"source": "patent US11007270B2", "about": "“Polymer-semaxanib moiety conjugates” (Nektar Therapeutics, priority 2010, dated 2021)", "key": {"[1]": {"molecular_target": "c-Kit (Homo sapiens, UniProt P10721)", "sequence (P10721 26-976)": "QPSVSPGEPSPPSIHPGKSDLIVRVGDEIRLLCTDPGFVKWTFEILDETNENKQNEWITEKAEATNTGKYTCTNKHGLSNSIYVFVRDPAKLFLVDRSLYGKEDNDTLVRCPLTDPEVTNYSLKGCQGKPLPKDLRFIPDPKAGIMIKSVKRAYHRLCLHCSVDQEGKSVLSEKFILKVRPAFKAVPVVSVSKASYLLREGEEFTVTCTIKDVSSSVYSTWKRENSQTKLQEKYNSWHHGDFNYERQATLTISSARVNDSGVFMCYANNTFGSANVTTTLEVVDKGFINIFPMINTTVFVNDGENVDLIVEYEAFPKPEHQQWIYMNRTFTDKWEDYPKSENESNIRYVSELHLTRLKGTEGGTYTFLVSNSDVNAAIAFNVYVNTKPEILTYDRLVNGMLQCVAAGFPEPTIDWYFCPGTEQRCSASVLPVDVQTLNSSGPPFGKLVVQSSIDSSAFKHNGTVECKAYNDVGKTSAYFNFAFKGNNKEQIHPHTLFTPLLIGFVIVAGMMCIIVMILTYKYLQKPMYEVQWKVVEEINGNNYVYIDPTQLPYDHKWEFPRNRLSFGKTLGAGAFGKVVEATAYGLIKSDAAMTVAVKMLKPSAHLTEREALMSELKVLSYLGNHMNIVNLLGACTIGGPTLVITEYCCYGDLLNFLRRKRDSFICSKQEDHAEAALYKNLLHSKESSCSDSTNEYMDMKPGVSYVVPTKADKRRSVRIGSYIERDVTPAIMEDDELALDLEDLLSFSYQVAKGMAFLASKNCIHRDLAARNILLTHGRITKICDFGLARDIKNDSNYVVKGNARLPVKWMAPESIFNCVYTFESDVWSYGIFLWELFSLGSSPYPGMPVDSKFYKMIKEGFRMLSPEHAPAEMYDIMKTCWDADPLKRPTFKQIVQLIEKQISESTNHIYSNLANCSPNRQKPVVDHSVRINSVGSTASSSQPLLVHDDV", "assay": "c-Kit tyrosine kinase inhibition, Caliper screening (fluorescent substrate phosphorylation, electrophoretic separation)", "format": "biochemical", "details": "for IC50: averages of replicate wells; for c-Kit Fold: fold of IC50 relative to sunitinib"}, "[2]": {"molecular_target": "VEGFR-2 (Homo sapiens, UniProt P35968)", "sequence (P35968 20-1356, species assumed)": "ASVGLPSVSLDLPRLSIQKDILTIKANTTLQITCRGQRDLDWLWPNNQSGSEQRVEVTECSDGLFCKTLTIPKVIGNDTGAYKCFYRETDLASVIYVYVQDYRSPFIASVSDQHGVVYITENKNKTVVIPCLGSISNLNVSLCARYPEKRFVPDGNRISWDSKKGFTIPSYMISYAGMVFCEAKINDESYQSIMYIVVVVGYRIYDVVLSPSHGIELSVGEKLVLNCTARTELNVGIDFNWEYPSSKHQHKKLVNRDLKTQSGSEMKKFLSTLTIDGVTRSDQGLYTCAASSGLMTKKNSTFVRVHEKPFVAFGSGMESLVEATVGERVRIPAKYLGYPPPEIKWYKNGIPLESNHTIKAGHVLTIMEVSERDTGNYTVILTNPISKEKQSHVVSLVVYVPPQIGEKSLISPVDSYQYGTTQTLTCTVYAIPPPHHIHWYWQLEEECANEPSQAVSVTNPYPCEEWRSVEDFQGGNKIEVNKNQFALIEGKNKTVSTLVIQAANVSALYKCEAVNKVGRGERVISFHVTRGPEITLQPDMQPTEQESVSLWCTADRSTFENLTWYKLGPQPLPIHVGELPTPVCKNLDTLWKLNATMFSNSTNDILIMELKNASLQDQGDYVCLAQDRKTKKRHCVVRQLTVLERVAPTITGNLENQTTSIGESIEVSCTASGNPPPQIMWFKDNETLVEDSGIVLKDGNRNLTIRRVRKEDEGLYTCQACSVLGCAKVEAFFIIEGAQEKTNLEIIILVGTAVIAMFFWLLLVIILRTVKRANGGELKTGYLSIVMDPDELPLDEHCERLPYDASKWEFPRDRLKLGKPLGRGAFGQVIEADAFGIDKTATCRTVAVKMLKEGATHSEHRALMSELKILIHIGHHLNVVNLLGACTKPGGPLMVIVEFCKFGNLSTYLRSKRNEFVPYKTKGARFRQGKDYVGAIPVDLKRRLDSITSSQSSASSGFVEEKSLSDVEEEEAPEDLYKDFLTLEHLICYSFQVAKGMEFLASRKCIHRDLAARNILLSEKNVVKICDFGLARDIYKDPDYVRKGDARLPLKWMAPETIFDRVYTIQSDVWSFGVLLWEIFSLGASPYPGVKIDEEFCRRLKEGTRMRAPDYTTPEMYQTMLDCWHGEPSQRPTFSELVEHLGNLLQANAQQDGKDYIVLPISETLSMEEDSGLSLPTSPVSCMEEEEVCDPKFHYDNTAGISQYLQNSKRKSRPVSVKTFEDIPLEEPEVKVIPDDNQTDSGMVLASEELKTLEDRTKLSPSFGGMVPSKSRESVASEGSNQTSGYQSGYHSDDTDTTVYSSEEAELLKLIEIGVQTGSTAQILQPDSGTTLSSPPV", "assay": "VEGFR-2 kinase inhibition, Caliper screening (fluorescent substrate phosphorylation, electrophoretic separation)"}, "[3]": {"molecular_target": "RET (Homo sapiens, UniProt P07949)", "sequence (P07949 29-1114, species assumed)": "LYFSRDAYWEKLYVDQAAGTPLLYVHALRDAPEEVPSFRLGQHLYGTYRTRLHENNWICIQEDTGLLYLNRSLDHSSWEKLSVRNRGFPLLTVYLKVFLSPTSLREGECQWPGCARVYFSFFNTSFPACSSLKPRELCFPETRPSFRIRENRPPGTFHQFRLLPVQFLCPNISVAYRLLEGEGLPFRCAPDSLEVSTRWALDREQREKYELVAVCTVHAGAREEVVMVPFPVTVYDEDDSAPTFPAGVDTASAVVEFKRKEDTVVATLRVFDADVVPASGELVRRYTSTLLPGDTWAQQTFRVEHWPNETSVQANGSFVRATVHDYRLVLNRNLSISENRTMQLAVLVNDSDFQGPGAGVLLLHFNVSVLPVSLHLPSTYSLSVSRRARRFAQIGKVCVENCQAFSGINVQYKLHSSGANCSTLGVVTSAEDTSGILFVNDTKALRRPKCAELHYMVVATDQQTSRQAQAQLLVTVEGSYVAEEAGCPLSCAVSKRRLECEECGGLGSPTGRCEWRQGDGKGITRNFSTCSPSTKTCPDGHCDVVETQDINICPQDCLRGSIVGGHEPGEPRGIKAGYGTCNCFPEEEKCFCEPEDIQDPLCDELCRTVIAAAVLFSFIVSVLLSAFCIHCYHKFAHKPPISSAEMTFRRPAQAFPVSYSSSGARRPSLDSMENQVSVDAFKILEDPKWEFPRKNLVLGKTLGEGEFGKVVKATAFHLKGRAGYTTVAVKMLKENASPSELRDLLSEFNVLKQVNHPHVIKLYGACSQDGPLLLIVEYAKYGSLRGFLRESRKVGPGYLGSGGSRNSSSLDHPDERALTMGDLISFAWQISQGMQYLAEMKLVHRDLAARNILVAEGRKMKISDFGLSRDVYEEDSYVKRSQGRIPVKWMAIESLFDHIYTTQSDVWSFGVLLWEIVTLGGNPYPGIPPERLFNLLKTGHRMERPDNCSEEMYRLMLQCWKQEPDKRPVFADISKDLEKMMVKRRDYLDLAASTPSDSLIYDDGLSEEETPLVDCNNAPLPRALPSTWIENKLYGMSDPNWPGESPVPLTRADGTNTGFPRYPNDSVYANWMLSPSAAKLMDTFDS", "assay": "RET kinase inhibition, Caliper screening (fluorescent substrate phosphorylation, electrophoretic separation)", "details": "for RET Fold: fold of IC50 relative to sunitinib"}, "[4]": {"details": "concentration 1.0E−05 (unit not given)"}, "[5]": {"details": "concentration 1.0E−06 (unit not given)"}, "[6]": {"details": "concentration 1.0E−07 (unit not given)"}, "[7]": {"details": "concentration 1.0E−08 (unit not given)"}, "[8]": {"details": "concentration 1.0E−09 (unit not given)"}, "[9]": {"details": "concentration 1.0E−10 (unit not given)"}, "[10]": {"details": "concentration 3.0E−05 (unit not given)"}, "[11]": {"details": "concentration 3.0E−06 (unit not given)"}, "[12]": {"details": "concentration 3.0E−07 (unit not given)"}, "[13]": {"details": "concentration 3.0E−08 (unit not given)"}, "[14]": {"details": "concentration 3.0E−09 (unit not given)"}, "[15]": {"details": "concentration 3.0E−10 (unit not given)"}}, "note": "Values joined by “and” are separate entries in the source; they are usually repeats but may differ in a detail not shown here. Identical values can stand only once. Like-named read-outs stand apart in the source and are kept apart here."}
{"compound": "COCCOCCOCCOCCNC(=O)c1c(C)[nH]c(/C=C2\\C(=O)Nc3ccc(F)cc32)c1C", "note": "[mPEG4-semaxanib, (Z)-5-((5-fluoro-2-oxoindolin-3-ylidene)methyl)-2,4-dimethyl-1H-pyrrole-3-mPEG4-amide]", "values": [{"measurement": "IC50", "setting": "[1]", "value": 0.17, "unit": "µM"}, {"measurement": "c-Kit AVG % Activity at Specific Concentration", "setting": "[1]; [4]", "value": "−1", "unit": "%"}, {"measurement": "c-Kit AVG % Activity at Specific Concentration", "setting": "[1]; [5]", "value": 3, "unit": "%"}, {"measurement": "c-Kit AVG % Activity at Specific Concentration", "setting": "[1]; [6]", "value": 70, "unit": "%"}, {"measurement": "c-Kit AVG % Activity at Specific Concentration", "setting": "[1]; [7]", "value": 97, "unit": "%"}, {"measurement": "c-Kit AVG % Activity at Specific Concentration", "setting": "[1]; [8]", "value": 99, "unit": "%"}, {"measurement": "c-Kit AVG % Activity at Specific Concentration", "setting": "[1]; [9]", "value": 97, "unit": "%"}, {"measurement": "c-Kit AVG % Activity at Specific Concentration", "setting": "[1]; [10]", "value": "−1", "unit": "%"}, {"measurement": "c-Kit AVG % Activity at Specific Concentration", "setting": "[1]; [11]", "value": "−1", "unit": "%"}, {"measurement": "c-Kit AVG % Activity at Specific Concentration", "setting": "[1]; [12]", "value": 24, "unit": "%"}, {"measurement": "c-Kit AVG % Activity at Specific Concentration", "setting": "[1]; [13]", "value": 94, "unit": "%"}, {"measurement": "c-Kit AVG % Activity at Specific Concentration", "setting": "[1]; [14]", "value": 93, "unit": "%"}, {"measurement": "c-Kit AVG % Activity at Specific Concentration", "setting": "[1]; [15]", "value": 100, "unit": "%"}, {"measurement": "c-Kit Fold", "setting": "[1]", "value": 2.30}, {"measurement": "IC50", "setting": "[2]", "value": 0.18, "unit": "µM"}, {"measurement": "VEGFR-2 AVG % Activity at Specific Concentration", "setting": "[2]; [4]", "value": "−4", "unit": "%"}, {"measurement": "VEGFR-2 AVG % Activity at Specific Concentration", "setting": "[2]; [5]", "value": 12, "unit": "%"}, {"measurement": "VEGFR-2 AVG % Activity at Specific Concentration", "setting": "[2]; [6]", "value": 56, "unit": "%"}, {"measurement": "VEGFR-2 AVG % Activity at Specific Concentration", "setting": "[2]; [7]", "value": 88, "unit": "%"}, {"measurement": "VEGFR-2 AVG % Activity at Specific Concentration", "setting": "[2]; [8]", "value": 92, "unit": "%"}, {"measurement": "VEGFR-2 AVG % Activity at Specific Concentration", "setting": "[2]; [9]", "value": 86, "unit": "%"}, {"measurement": "VEGFR-2 AVG % Activity at Specific Concentration", "setting": "[2]; [10]", "value": "−6", "unit": "%"}, {"measurement": "VEGFR-2 AVG % Activity at Specific Concentration", "setting": "[2]; [11]", "value": "−4", "unit": "%"}, {"measurement": "VEGFR-2 AVG % Activity at Specific Concentration", "setting": "[2]; [12]", "value": 35, "unit": "%"}, {"measurement": "VEGFR-2 AVG % Activity at Specific Concentration", "setting": "[2]; [13]", "value": 89, "unit": "%"}, {"measurement": "VEGFR-2 AVG % Activity at Specific Concentration", "setting": "[2]; [14]", "value": 96, "unit": "%"}, {"measurement": "VEGFR-2 AVG % Activity at Specific Concentration", "setting": "[2]; [15]", "value": 97, "unit": "%"}, {"measurement": "VEGFR-2 Fold", "setting": "[2]; fold of IC50 relative to sunitinib", "value": 3.67}, {"measurement": "IC50", "setting": "[3]", "value": 0.35, "unit": "µM"}, {"measurement": "RET AVG % Activity at Specific Concentration", "setting": "[3]; [4]", "value": 0, "unit": "%"}, {"measurement": "RET AVG % Activity at Specific Concentration", "setting": "[3]; [5]", "value": 22, "unit": "%"}, {"measurement": "RET AVG % Activity at Specific Concentration", "setting": "[3]; [6]", "value": 78, "unit": "%"}, {"measurement": "RET AVG % Activity at Specific Concentration", "setting": "[3]; [7]", "value": 99, "unit": "%"}, {"measurement": "RET AVG % Activity at Specific Concentration", "setting": "[3]; [8]", "value": 89, "unit": "%"}, {"measurement": "RET AVG % Activity at Specific Concentration", "setting": "[3]; [9]", "value": 100, "unit": "%"}, {"measurement": "RET AVG % Activity at Specific Concentration", "setting": "[3]; [10]", "value": "−1", "unit": "%"}, {"measurement": "RET AVG % Activity at Specific Concentration", "setting": "[3]; [11]", "value": 5, "unit": "%"}, {"measurement": "RET AVG % Activity at Specific Concentration", "setting": "[3]; [12]", "value": 52, "unit": "%"}, {"measurement": "RET AVG % Activity at Specific Concentration", "setting": "[3]; [13]", "value": 95, "unit": "%"}, {"measurement": "RET AVG % Activity at Specific Concentration", "setting": "[3]; [14]", "value": 100, "unit": "%"}, {"measurement": "RET AVG % Activity at Specific Concentration", "setting": "[3]; [15]", "value": 99, "unit": "%"}, {"measurement": "RET Fold", "setting": "[3]", "value": 8.14}]}
{"compound": "COCCOCCOCCOCCOCCNC(=O)c1c(C)[nH]c(/C=C2\\C(=O)Nc3ccc(F)cc32)c1C", "note": "[mPEG5-semaxanib, (Z)-5-((5-fluoro-2-oxoindolin-3-ylidene)methyl)-2,4-dimethyl-1H-pyrrole-3-mPEG5-amide]", "values": [{"measurement": "IC50", "setting": "[1]", "value": 0.23, "unit": "µM"}, {"measurement": "c-Kit AVG % Activity at Specific Concentration", "setting": "[1]; [4]", "value": "−1", "unit": "%"}, {"measurement": "c-Kit AVG % Activity at Specific Concentration", "setting": "[1]; [5]", "value": 6, "unit": "%"}, {"measurement": "c-Kit AVG % Activity at Specific Concentration", "setting": "[1]; [6]", "value": 76, "unit": "%"}, {"measurement": "c-Kit AVG % Activity at Specific Concentration", "setting": "[1]; [7]", "value": 106, "unit": "%"}, {"measurement": "c-Kit AVG % Activity at Specific Concentration", "setting": "[1]; [8]", "value": 100, "unit": "%"}, {"measurement": "c-Kit AVG % Activity at Specific Concentration", "setting": "[1]; [9]", "value": 90, "unit": "%"}, {"measurement": "c-Kit AVG % Activity at Specific Concentration", "setting": "[1]; [10]", "value": "−1", "unit": "%"}, {"measurement": "c-Kit AVG % Activity at Specific Concentration", "setting": "[1]; [11]", "value": 0, "unit": "%"}, {"measurement": "c-Kit AVG % Activity at Specific Concentration", "setting": "[1]; [12]", "value": 37, "unit": "%"}, {"measurement": "c-Kit AVG % Activity at Specific Concentration", "setting": "[1]; [13]", "value": 96, "unit": "%"}, {"measurement": "c-Kit AVG % Activity at Specific Concentration", "setting": "[1]; [14]", "value": 99, "unit": "%"}, {"measurement": "c-Kit AVG % Activity at Specific Concentration", "setting": "[1]; [15]", "value": 99, "unit": "%"}, {"measurement": "c-Kit Fold", "setting": "[1]", "value": 3.10}, {"measurement": "IC50", "setting": "[3]", "value": 0.44, "unit": "µM"}, {"measurement": "RET AVG % Activity at Specific Concentration", "setting": "[3]; [4]", "value": 0, "unit": "%"}, {"measurement": "RET AVG % Activity at Specific Concentration", "setting": "[3]; [5]", "value": 29, "unit": "%"}, {"measurement": "RET AVG % Activity at Specific Concentration", "setting": "[3]; [6]", "value": 84, "unit": "%"}, {"measurement": "RET AVG % Activity at Specific Concentration", "setting": "[3]; [7]", "value": 99, "unit": "%"}, {"measurement": "RET AVG % Activity at Specific Concentration", "setting": "[3]; [8]", "value": 98, "unit": "%"}, {"measurement": "RET AVG % Activity at Specific Concentration", "setting": "[3]; [9]", "value": 98, "unit": "%"}, {"measurement": "RET AVG % Activity at Specific Concentration", "setting": "[3]; [10]", "value": "−1", "unit": "%"}, {"measurement": "RET AVG % Activity at Specific Concentration", "setting": "[3]; [11]", "value": 6, "unit": "%"}, {"measurement": "RET AVG % Activity at Specific Concentration", "setting": "[3]; [12]", "value": 59, "unit": "%"}, {"measurement": "RET AVG % Activity at Specific Concentration", "setting": "[3]; [13]", "value": 95, "unit": "%"}, {"measurement": "RET AVG % Activity at Specific Concentration", "setting": "[3]; [14]", "value": 102, "unit": "%"}, {"measurement": "RET AVG % Activity at Specific Concentration", "setting": "[3]; [15]", "value": 99, "unit": "%"}, {"measurement": "RET Fold", "setting": "[3]", "value": 10.23}]}
{"compound": "COCCOCCOCCOCCOCCOCCNC(=O)c1c(C)[nH]c(/C=C2\\C(=O)Nc3ccc(F)cc32)c1C", "note": "[mPEG6-semaxanib, (Z)-5-((5-fluoro-2-oxoindolin-3-ylidene)methyl)-2,4-dimethyl-1H-pyrrole-3-mPEG6-amide]", "values": [{"measurement": "IC50", "setting": "[1]", "value": 0.29, "unit": "µM"}, {"measurement": "c-Kit AVG % Activity at Specific Concentration", "setting": "[1]; [4]", "value": "−1", "unit": "%"}, {"measurement": "c-Kit AVG % Activity at Specific Concentration", "setting": "[1]; [5]", "value": 8, "unit": "%"}, {"measurement": "c-Kit AVG % Activity at Specific Concentration", "setting": "[1]; [6]", "value": 79, "unit": "%"}, {"measurement": "c-Kit AVG % Activity at Specific Concentration", "setting": "[1]; [7]", "value": 94, "unit": "%"}, {"measurement": "c-Kit AVG % Activity at Specific Concentration", "setting": "[1]; [8]", "value": 97, "unit": "%"}, {"measurement": "c-Kit AVG % Activity at Specific Concentration", "setting": "[1]; [9]", "value": 91, "unit": "%"}, {"measurement": "c-Kit AVG % Activity at Specific Concentration", "setting": "[1]; [10]", "value": "−1", "unit": "%"}, {"measurement": "c-Kit AVG % Activity at Specific Concentration", "setting": "[1]; [11]", "value": 0, "unit": "%"}, {"measurement": "c-Kit AVG % Activity at Specific Concentration", "setting": "[1]; [12]", "value": 44, "unit": "%"}, {"measurement": "c-Kit AVG % Activity at Specific Concentration", "setting": "[1]; [13]", "value": 95, "unit": "%"}, {"measurement": "c-Kit AVG % Activity at Specific Concentration", "setting": "[1]; [14]", "value": 99, "unit": "%"}, {"measurement": "c-Kit AVG % Activity at Specific Concentration", "setting": "[1]; [15]", "value": 87, "unit": "%"}, {"measurement": "c-Kit Fold", "setting": "[1]", "value": 3.90}, {"measurement": "VEGFR-2 AVG % Activity at Specific Concentration", "setting": "[2]", "value": "96% and 93%"}]}
